Test results reported in ChEMBL document CHEMBL1150865, “Ma'iliohydrin, a cytotoxic chamigrene dibromohydrin from a Philippine Laurencia species” (2001).

Key:
[1] = Growth inhibition of human NCI60 cells; format: functional
NCI/ADR-RES = assay: Growth inhibition of human NCI/ADR-RES cells; format: functional

C=C1C[C@@H](O)[C@@H](Br)C(C)(C)[C@@]12C=C[C@@](O)(C(Br)Br)CC2 [MAILIOHYDRIN]
GI50 [1]: 10 µM | GI50 (NCI/ADR-RES): 0.01 µM
